Results: PubChem BioAssay (NCI)
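Tested at 5 concentrations; 48 h exposure; 96-well plates; endpoints linearly interpolated, else capped at highest concentration. The concentration for 50% growth inhibition is given as GI50. TGI: concentration producing complete growth inhibition.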

Assays:
Experiment in all cases: growth of human tumour cells (NCI), 48 h
[1] = tested on: ACHN renal
[2] = tested on: COLO 205 colon
[3] = tested on: KM12 colon
[4] = tested on: NCI-H460 lung
[5] = tested on: OVCAR-5 ovarian
[6] = tested on: OVCAR-8 ovarian
[7] = tested on: SW-620 colon
[8] = tested on: BT-549 breast
[9] = tested on: HOP-92 NSCLC
[10] = tested on: MALME-3M melanoma

Structure (SMILES) | TGI [1] | TGI [2] | TGI [3] | TGI [4] | TGI [5] | TGI [6] | TGI [7] | GI50 [1] | GI50 [8] | TGI [8] | GI50 [9] | TGI [9] | GI50 [3] | GI50 [5] | TGI [10] | GI50 [2] | GI50 [10] | GI50 [4] | GI50 [6] | GI50 [7]
COc1nc2c(c(O)c(C)c(=O)n2OC2OC(COC(C)=O)C(OC(C)=O)C(OC(C)=O)C2OC(C)=O)c(=O)n1C (centres undefined) | > 100 µM | > 100 µM | > 100 µM | > 100 µM | > 100 µM | > 100 µM | > 100 µM | – | – | – | – | – | – | – | – | – | – | – | – | –
c1cnc2[nH]cc(-c3csc(-c4cn(CCCN5CCCCC5)c5ccccc45)n3)c2c1 | 3.05 µM | – | 3.13 µM | – | 3.11 µM | – | – | 1.66 µM | 1.68 µM | 3.24 µM | 1.36 µM | 2.88 µM | 1.61 µM | 1.63 µM | – | – | – | – | – | –
CC[P+]1(CC)CCCC1 | > 100 µM | > 100 µM | > 100 µM | > 100 µM | > 100 µM | > 100 µM | > 100 µM | – | – | – | – | – | – | – | > 100 µM | – | – | – | – | –
CC1=C(C(=O)CC(=O)C(=O)NC2C3CC4CC(C3)CC2C4)Sc2ccccc2N1 (centres undefined) | > 100 µM | > 31.6 µM | > 100 µM | > 100 µM | > 100 µM | > 100 µM | > 100 µM | – | – | – | – | > 100 µM | – | – | > 100 µM | – | – | – | – | –
C[C@@]12CCCC(=O)N1[C@@H](CO)C(c1ccccc1)O2 (some centres undefined) | > 100 µM | > 100 µM | > 100 µM | > 100 µM | > 100 µM | > 100 µM | > 100 µM | – | – | – | – | > 100 µM | – | – | > 100 µM | – | – | – | – | –
Cc1nnc(N=Nc2c(O)[nH]c3ccccc23)n1N | > 100 µM | > 100 µM | > 100 µM | > 100 µM | > 100 µM | > 100 µM | > 100 µM | – | – | – | – | – | – | – | > 100 µM | – | – | – | – | –
NC(=O)c1c[se]c(C2OC(COP(=O)(O)CP(=O)(O)OCC3OC(n4cnc5c(N)ncnc54)C(O)C3O)C(O)C2O)n1 (centres undefined) | > 100 µM | > 100 µM | > 100 µM | > 100 µM | > 100 µM | > 100 µM | > 100 µM | – | – | – | – | > 100 µM | – | – | > 100 µM | – | – | – | – | –
COC(=O)c1cc2c3c(ccc2[nH]1)N(C(=O)c1cc2c4c(ccc2[nH]1)N(C(=O)c1cc2c5c(ccc2[nH]1)N(C(N)=O)CC5)CC4)CC3 | > 27.8 µM | > 36 µM | > 100 µM | > 100 µM | > 100 µM | > 30.8 µM | > 100 µM | – | – | – | – | 7.31 µM | – | – | > 24.2 µM | – | – | – | – | –
COc1ccc(C2NCCc3c2[nH]c2ccccc32)cc1 (centres undefined) | > 100 µM | > 100 µM | > 100 µM | > 100 µM | > 100 µM | > 100 µM | > 100 µM | – | – | – | – | > 100 µM | – | – | > 100 µM | – | – | – | – | –
COc1ccccc1/C=C\C(=O)c1ccccc1 | 17.5 µM | 24.3 µM | 6.32 µM | 18.4 µM | 32.5 µM | 15 µM | – | 5.4 µM | 11 µM | 23.3 µM | 11.9 µM | 31.5 µM | 2.79 µM | 17.7 µM | 26.2 µM | 11.9 µM | 12.9 µM | 5.75 µM | 4.21 µM | –
O=C1C(c2ccccc2)=C(c2ccccc2)[C@H](c2ccccc2)[C@]1(Cc1nnn(-c2ccc([N+](=O)[O-])cc2)c1N1CCOCC1)c1ccccc1 | > 37.5 µM | > 37.5 µM | – | > 37.5 µM | – | > 37.5 µM | > 37.5 µM | – | – | – | – | 2.25 µM | – | – | – | – | – | – | – | –
COc1ccc(CC2=NCCc3cc(OC)c(OC)cc32)cc1Br | > 100 µM | 37.4 µM | 84.4 µM | > 100 µM | 8.32 µM | > 100 µM | > 100 µM | – | – | – | – | 33.7 µM | – | – | 70.4 µM | – | – | – | – | –
O=C(Nc1ccccc1O)c1ccc(CNC(=O)c2ccsc2Nc2ccnc(C(F)(F)F)c2)cc1 | 10.3 µM | 13.4 µM | 11.9 µM | 11.4 µM | 14.7 µM | 19.1 µM | 10.5 µM | 2.6 µM | 1.89 µM | 5.04 µM | – | – | 2.84 µM | 2.05 µM | 6.65 µM | 3.4 µM | 1.7 µM | 2.38 µM | 1.57 µM | 2.5 µM
COc1cc(O)c(C(C)=O)c(O)c1 | > 100 µM | > 100 µM | > 100 µM | > 100 µM | > 100 µM | > 100 µM | > 100 µM | – | – | – | – | 90.8 µM | – | – | > 100 µM | – | – | – | – | –
CC(=O)[CH-]C(=O)c1ccccc1.CC(=O)[CH-]C(=O)c1ccccc1.[CH2-]CCC.[CH2-]CCC.[Sn+4] | 2.86 µM | 2.47 µM | 2.76 µM | 4.62 µM | 3.59 µM | 3.1 µM | 0.964 µM | 1.49 µM | – | – | – | – | 1.41 µM | 2.07 µM | 1.91 µM | 0.984 µM | 0.63 µM | 2.11 µM | 1.36 µM | 0.283 µM
COC(=O)C1(F)C(=O)NC(=O)NC1OC (centres undefined) | > 100 µM | > 100 µM | > 100 µM | > 100 µM | > 100 µM | > 100 µM | > 100 µM | – | – | – | – | > 100 µM | – | – | > 100 µM | – | – | – | – | –
C/C(=N\n1c(N)c(C#N)c(-c2ccc(Cl)cc2)c(C#N)c1=O)c1ccncc1 | 49.5 µM | > 100 µM | – | 82.5 µM | > 100 µM | 12.4 µM | > 100 µM | 20.9 µM | – | – | 0.61 µM | 4.17 µM | – | 60.4 µM | > 100 µM | > 100 µM | 7.54 µM | 22.4 µM | 2.95 µM | 31.5 µM
CCN(CC)CCOc1ccc(/C=C2\CC3C4CC=C5C[C@@H](OC(C)=O)CC[C@]5(C)C4CC[C@]3(C)C2=O)cc1OC (some centres undefined) | 21.5 µM | > 100 µM | 4.18 µM | – | 12.4 µM | 49 µM | – | 9.84 µM | 11.4 µM | 33 µM | 13.3 µM | 37.7 µM | 1.99 µM | 3.38 µM | 3.47 µM | 15.9 µM | 1.96 µM | – | 20 µM | –
CCCCCCCCCC(=O)Oc1cccc2onc(C)c12 | > 100 µM | > 100 µM | > 100 µM | > 100 µM | > 100 µM | > 100 µM | > 100 µM | – | – | – | – | > 100 µM | – | – | > 100 µM | – | – | – | – | –
